Measurements reported in patent US9840478B2 (MERCK SHARP & DOHME CORP., priority 2013, dated 2017).

The compounds below were run on HIV-1 (H9IIIB strain) (assay: Cell-based HIV infection assay using a reporter (Cell-Based), MT4-GFP cells). Conditions: Human immunodeficiency virus 1, MT4-GFP cells infected with HIV-1 H9IIIB; 50% normal human serum; mean of at least two independent experiments; read-out: Cell-based IP.
How it was run: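 IC50 from 4-parameter dose-response of % viral growth inhibition, using the 48 h/24 h infected-cell ratio scaled between DMSO and a protease/integrase/NNRTI triple-drug control. Assay used MT4 cells with HIV-LTR-GFP reporter, pre-infected 24 h with HIV-1 H9IIIB, in 50% normal human serum.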
For COC(=O)N[C@H](C(=O)Nc1cccc(F)c1CC[C@H]1CNCCN1S(=O)(=O)c1ccccc1)[C@@H](c1ccc(Cl)cc1)c1cncc(C(F)(F)F)c1 [Example 66, (βS)-4-chloro-N-(3-fluoro-2-{2-[(2S)-1-(phenylsulfonyl)piperazin-2-yl]ethyl}phenyl)-Nα-(methoxycarbonyl)-β-[5-(trifluoromethyl)pyridin-3-yl]-L-phenylalaninamide], the IC50 was 12 nM. For COC(=O)N[C@H](C(=O)Nc1cccc(F)c1CC[C@H]1CNC[C@@H](C)N1S(=O)(=O)c1ccccc1)[C@@H](c1ccc(Cl)cc1)c1cccc(F)c1 [Example 184, (βS)-4-chloro-N-(3-fluoro-2-{2-[(2S,6R)-6-methyl-1-(phenylsulfonyl)piperazin-2-yl]ethyl}phenyl)-β-(3-fluorophenyl)-Nα-(methoxycarbonyl)-L-phenylalaninamide], the IC50 was 25 nM. For CCOC(=O)c1nc(-c2ccc(S(=O)(=O)N3CCNC[C@@H]3CCc3c(F)cncc3NC(=O)C[C@@H](c3ccc(F)cc3)c3cc(F)cc(F)c3)s2)no1 [Example 312, ethyl 3-[5-({(2S)-2-[2-(3-{[(3S)-3-(3,5-difluorophenyl)-3-(4-fluorophenyl)propanoyl]amino}-5-fluoropyridin-4-yl)ethyl]piperazin-1-yl}sulfonyl)thiophen-2-yl]-1,2,4-oxadiazole-5-carboxylate], the IC50 was 140 nM. For C[C@H]1CNC[C@H](CCc2c(F)cncc2NC(=O)[C@@H](N)[C@@H](c2ccc(Cl)cc2)c2cccc(F)c2)N1S(=O)(=O)C1CC1 [Example 166, (βS)-4-chloro-N-(4-{2-[(2S,6S)-1-(cyclopropylsulfonyl)-6-methylpiperazin-2-yl]ethyl}-5-fluoropyridin-3-yl)-β-(3-fluorophenyl)-L-phenylalaninamide], the IC50 was 29 nM. Work on COC(=O)N[C@H](C(=O)Nc1cccc(F)c1CC[C@H]1CNC[C@H](C)N1S(=O)(=O)c1ccc(OC)cc1)[C@@H](Cc1ccc(F)cc1)c1ccc(Cl)cc1 [Example 187, (βS)-4-chloro-β-(4-fluorobenzyl)-N-[3-fluoro-2-(2-{(2S,6S)-1-[(4-methoxyphenyl)sulfonyl]-6-methylpiperazin-2-yl}ethyl)phenyl]-Nα-(methoxycarbonyl)-L-phenylalaninamide] yielded an IC50 of 35 nM. With CC1(C)CC([C@H](c2ccc(Cl)cc2)[C@H](N)C(=O)Nc2cccc(F)c2CC[C@H]2CNCCN2S(C)(=O)=O)CCO1 (stereo partly drawn) [Example 78, (βR)-4-chloro-β-(2,2-dimethyltetrahydro-2H-pyran-4-yl)-N-(3-fluoro-2-{2-[(2S)-1-(methylsulfonyl)piperazin-2-yl]ethyl}phenyl)-L-phenylalaninamide] the IC50 was 110 nM. For COC(=O)N[C@H](C(=O)Nc1cncc(F)c1CC[C@H]1CNC[C@H](C)N1S(C)(=O)=O)[C@@H](c1ccc(F)cc1)c1cc(F)cc(F)c1 [Example 190, (βS)-β-(3,5-difluorophenyl)-4-fluoro-N-(5-fluoro-4-{2-[(2S,6S)-6-methyl-1-(methylsulfonyl)piperazin-2-yl]ethyl}pyridin-3-yl)-Nα-(methoxycarbonyl)-L-phenylalaninamide], the IC50 was 13 nM. C[C@H]1CNC[C@H](CCc2c(F)cncc2NC(=O)[C@@H](N)[C@@H](c2ccc(F)cc2)c2cc(F)cc(F)c2)N1S(=O)(=O)c1ccccc1 [Example 105, (βS)-β-(3,5-difluorophenyl)-4-fluoro-N-(5-fluoro-4-{2-[(2S,6S)-6-methyl-1-(phenylsulfonyl)piperazin-2-yl]ethyl}pyridin-3-yl)-L-phenylalaninamide] gave an IC50 of 19 nM. C[C@@H]1CNC[C@H](CCc2c(F)cccc2NC(=O)[C@@H](N)[C@H](c2cccc(F)c2)c2cccc(Cl)c2)N1S(C)(=O)=O [Example 169, (βR)-3-chloro-N-(3-fluoro-2-{2-[(2S,6R)-6-methyl-1-(methylsulfonyl)piperazin-2-yl]ethyl}phenyl)-β-(3-fluorophenyl)-L phenylalaninamide] showed an IC50 of 170 nM. For CS(=O)(=O)N1[C@@H](CCc2c(F)cccc2NC(=O)[C@@H](N)C(c2ccc(F)cc2)c2ccc(F)cc2)CNCC12CC2 [Example 367, (S)-2-amino-N-(3-fluoro-2-(2-((S)-4-(methylsulfonyl)-4,7-diazaspiro[2.5]octan-5-yl)ethyl)phenyl)-3,3-bis(4fluorophenyl)propanamide], the IC50 was 47 nM. Work on COC(=O)N[C@H](C(=O)Nc1cccc(F)c1CC[C@H]1CNC[C@H](C)N1S(=O)(=O)c1ccc(OC)cc1)[C@@H](c1cccc(Cl)c1)C(C)C [Example 250, (βR)-3-chloro-N-[3-fluoro-2-(2-{(2S,6S)-1-[(4-methoxyphenyl)sulfonyl]-6-methylpiperazin-2-yl}ethyl)phenyl]-Nα-(methoxycarbonyl)-β-(1-methylethyl)-L-phenylalaninamide] yielded an IC50 of 34 nM. For N[C@H](C(=O)Nc1cncc(F)c1CC[C@H]1CNCCN1S(=O)(=O)c1ccccc1)[C@@H](c1ccc(F)cc1)c1cc(F)cc(F)c1 [Example 30, (βS)-β-(3,5-difluorophenyl)-4-fluoro-N-(5-fluoro-4-{2-[(2S)-1-(phenylsulfonyl)piperazin-2-yl]ethyl}pyridin-3-yl)-L-phenylalaninamide], the IC50 was 9.3 nM. COC(=O)N[C@H](C(=O)Nc1cccc(F)c1CC[C@H]1CNC[C@@H](C)N1S(=O)(=O)C1CC1)[C@@H](c1ccc(F)cc1)c1cc(F)cc(F)c1 [Example 257, (βS)-N-(2-{2-[(2S,6R)-1-(cyclopropylsulfonyl)-6-methylpiperazin-2-yl]ethyl}-3-fluorophenyl)-β-(3,5-difluorophenyl)-4-fluoro-Nα-(methoxycarbonyl)-L-phenylalaninamide] was tested, and the IC50 was 27 nM. COC(=O)N[C@H](C(=O)Nc1cccc(F)c1CC[C@H]1CNC[C@@H](C)N1S(=O)(=O)c1ccccc1)[C@@H](c1cc(F)cc(F)c1)C1CCOCC1 [Example 283, (βR)-3,5-difluoro-N-(3-fluoro-2-{2-[(2S,6R)-6-methyl-1-(phenylsulfonyl)piperazin-2-yl]ethyl}phenyl)-Nα-(methoxycarbonyl)-β-(tetrahydro-2H-pyran-4-yl)-L-phenylalaninamide] was tested, and the IC50 was 14 nM. In the case of CC(C)[C@H](c1ccc(Cl)cc1)[C@H](N)C(=O)Nc1cccc(F)c1CC[C@H]1CNC[C@@H](C)N1S(=O)(=O)C1CC1 [Example 128, (βR)-4-chloro-N-(2-{2-[(2S,6R)-1-(cyclopropylsulfonyl)-6-methylpiperazin-2-yl]ethyl}-3-fluorophenyl)-β-(1-methylethyl)-L-phenylalaninamide], the IC50 is reported as 610 nM. In the case of O=C(C[C@@H](c1ccc(F)cc1)c1cc(F)cc(F)c1)Nc1cncc(F)c1CC[C@H]1CNCCN1S(=O)(=O)N1CCC(F)(F)C1 [Example 329, (3S)-3-(3,5-difluorophenyl)-N-[4-(2-{(2)S-1-[(3,3-difluoropyrrolidin-1-yl)sulfonyl]piperazin-2-yl}ethyl)-5-fluoropyridin-3-yl]-3-(4-fluorophenyl)propanamide], the IC50 is reported as 47 nM. CC(C)[C@H](c1ccc(Cl)cc1)[C@H](N)C(=O)Nc1cncc(F)c1CC[C@H]1CNC[C@@H](C)N1S(=O)(=O)C1CC1 [Example 178, (βR)-4-chloro-N-(4-{2-[(2S,6R)-1-(cyclopropylsulfonyl)-6-methylpiperazin-2-yl]ethyl}-5-fluoropyridin-3-yl)-β-(1-methylethyl)-L-phenylalaninamide] was tested, and the IC50 was 340 nM. COC(=O)N[C@H](C(=O)Nc1cncc(F)c1CC[C@H]1CNC[C@@H](C)N1S(=O)(=O)C1CC1)[C@@H](c1ccc(Cl)cc1)C(C)C [Example 180, (βR)-4-chloro-N-(4-{2-[(2S,6R)-1-(cyclopropylsulfonyl)-6-methylpiperazin-2-yl]ethyl}-5-fluoropyridin-3-yl)-Nα-(methoxycarbonyl)-β-(1-methylethyl)-L-phenylalaninamide] was tested, and the IC50 was 69 nM. In the case of COC(=O)N[C@H](C(=O)Nc1cncc(F)c1CC[C@H]1CNCCN1S(=O)(=O)c1ccccc1)[C@@H](c1ccc(Cl)cc1)c1cc(F)cc(F)c1 [Example 57, (βS)-4-chloro-β-(3,5-difluorophenyl)-N-(5-fluoro-4-{2-[(2S)-1-(phenylsulfonyl)piperazin-2-yl]ethyl}pyridin-3-yl)-Nα-(methoxycarbonyl)-L-phenylalaninamide], the IC50 is reported as 7.7 nM. COC(=O)N[C@H](C(=O)Nc1cncc(F)c1CC[C@H]1CNC[C@H](C)N1S(=O)(=O)c1ccccc1)[C@@H](c1ccc(Cl)cc1)C1CCOCC1 [Example 274, (βR)-4-chloro-N-(5-fluoro-4-{2-[(2S,6S)-6-methyl-1-(phenylsulfonyl)piperazin-2-yl]ethyl}pyridin-3-yl)-Nα-(methoxycarbonyl)-β-(tetrahydro-2H-pyran-4-yl)-L-phenylalaninamide] showed an IC50 of 22 nM.

Same assay, conditions: MT4-GFP cells infected with HIV-1 H9IIIB; 50% normal human serum; mean of at least two independent experiments; read-out: Cell-based IP
Work on COC(=O)NC(C(=O)NC1CC(F)(F)CC1CC[C@H]1CNCCN1S(=O)(=O)c1ccccc1)C(c1ccc(F)cc1)c1ccc(F)cc1 (stereo in doubt) [Example 359, Methyl ((2R)-1-((4,4-difluoro-2-(2-((S)-1-(phenylsulfonyl)piperazin-2-yl)ethyl)cyclopentyl)amino)-3,3-bis(4-fluorophenyl)-1-oxopropan-2-yl)carbamate] yielded an IC50 of 530 nM. In the case of COC(=O)NC(C(=O)NC1CC(F)(F)CC1CC[C@H]1CNCCN1S(=O)(=O)c1ccccc1)C(c1ccc(F)cc1)c1ccc(F)cc1 (stereo in doubt) [Example 358, Methyl ((2R)-1-((4,4-difluoro-2-(2-((S)-1-(phenylsulfonyl)piperazin-2-yl)ethyl)cyclopentyl)amino)-3,3-bis(4-fluorophenyl)-1-oxopropan-2-yl)carbamate], the IC50 is reported as 160 nM. In the case of CC(C)OCC1CNC[C@H](CCc2c(F)cccc2NC(=O)[C@@H](N)[C@@H](c2ccc(F)cc2)c2cc(F)cc(F)c2)N1S(=O)(=O)C1CC1 (stereo partly drawn) [Example 256, (βS)-N-[2-(2-{(2S)-1-(cyclopropylsulfonyl)-6-[(1-methylethoxy)methyl]piperazin-2-yl}ethyl)-3-fluorophenyl]-β-(3,5-difluorophenyl)-4-fluoro-L-phenylalaninamide], the IC50 is reported as 73 nM.
